Source: paper PMC10746280, “Bacterial efflux pump modulators prevent bacterial growth in macrophages and under broth conditions that mimic the host environment” (mBio, 2023)

Key:
[1] = test system: Bacillus subtilis expressing mNeongreen-FtsZ; assay: Membrane voltage disruption assay (mNeongreen-FtsZ delocalization); assay type: cell-based
Text: We therefore monitored membrane integrity in the presence of EPM analogs by evaluating membrane voltage with mNeongreen-FtsZ ([28][–][30]). The FtsZ protein localizes to the bacterial septum based on membrane potential, and rapid delocalization of fluorescent FtsZ reporters occurs when voltage across the membrane is disrupted ([31], [32]). We monitored mNeongreen-FtsZ localization in a Gram-positive bacterium, Bacillus subtilis, to eliminate the potentially confounding issue of the passage of EPM analogs through the outer membrane at different rates ([24], [33][–][36]).
To determine whether exposure to compound dislodges FtsZ from the cell septum, an overnight culture of Bacillus subtilis grown in LPM at pH 5.5 (LPM 5.5) expressing mNeonGreen-FtsZ (strain DK5092) was exposed to DMSO, CCCP (100 µM) or an EPM analog (150 µM) for 15 or 30 min, as indicated. Bacteria were immobilized on 1% agarose pads made with LPM under a coverslip. To set the threshold value for the FtsZ septal ring, mNeonGreen signal (excitation 488 nm, emission 525 nm) from at least 20 DMSO-treated cells was quantified using a CV1000 confocal microscope with a 100× oil, NA = 1.4 objective. A background-subtracted image was made by subtracting the median intensity from full original images. A signal threshold of ≥400 arbitrary units per pixel was set (Fig. 4B). Then, we manually confirmed that mNeonGreen signal above threshold was at the center of the bacterial rod. We examined 50 cells per sample from at least three biological replicates (≥150 cells per condition). A MATLAB program (https://github.com/Betterton-Lab/FtsZ-Quantification) counted the number of pixels above threshold per cell and averaged this value across all cells for each condition and this value is reported in the graph (Fig. 4C).

[2] = test system: S. Typhimurium SL1344 (sifB::gfp) in RAW 264.7 macrophages; assay: SAFIRE macrophage assay: intracellular bacterial load (GFP signal within macrophages); assay type: cell-based, Salmonella enterica serotype Typhimurium
Method in brief: (§1)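 RAW 264.7 macrophages infected with S. Typhimurium SL1344 sifB::gfp (MOI ~30), gentamicin 40 µg/mL, then compound from 2 h to 18 h post-infection. Confocal imaging with MitoTracker and DAPI; toxicity as adherent MitoTracker-positive macrophage count, bacterial load as GFP+ macrophage area.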

RAW 264.7 macrophages = assay: SAFIRE macrophage assay: host toxicity (adherent macrophage count, morphology); assay type: cell-based
Method in brief: as §1

S. Typhimurium = assay: Checkerboard growth assays with antibiotics in LPM 5.5 (FICI and MuSyC analyses); assay type: cell-based; design: Antibiotic MIC Combination: unit not given here; EPM MIC Combination: unit: µM; settings: for log10(α1) [95% CI] (log-fold-change in potency of EPM due to the antibiotic) / Βobs [95% CI] (proportion increase in maximal efficacy of the antibiotic) / log10(α2) [95% CI] (log-fold-change in potency of the antibiotic due to the EPM): MuSyC fit; for Antibiotic MIC Combination / EPM MIC Combination / FICI value: LPM 5.5
Description: To examine whether the EPM analogs interact additively or synergistically with antibiotics, checkerboard growth assays were carried out in LPM 5.5. We compared three antibiotics (ciprofloxacin, doxycycline, erythromycin) and three EPM analogs (CU032, CU187, CU232) and the EPM35 parent compound (Fig. 6A). Standard fractional inhibitory concentration index (FICI) analyses supported synergy between the EPM analogs and ciprofloxacin (Fig. 6B). Since FICI values cannot distinguish between synergy due to changes in potency (activity) versus efficacy (the extent of the effect) ([42], [43]), we used the MuSyC synergy algorithm to measure EPM-antibiotic synergy ([44], [45]). The data were well fit by the MuSyC equation, with an R^2 of greater than 0.96 for all checkerboards (Table S2). […] Moreover, the consistency in the synergy of potency values across the antibiotics with different EPM analogs points toward a shared mechanism of action: the EPMs could modify the pharmacodynamics of the efflux process and prevent export of specific substrates through interactions with AcrB. We posit that the EPMs differentially reduce antibiotic export resulting in a higher effective intracellular concentration of the antibiotic.
Overnight cation-adjusted MHB-grown cultures of SL1344 or SA10801 were diluted in MHB or LPM 5.5 to an optical density at 600 nm (OD600) of 0.01 and distributed into polystyrene 96-well flat-bottom plates. EPM analogs were added at concentrations up to 300 µM, near the limit of solubility. The antibiotics ciprofloxacin, doxycycline, and erythromycin were added up to concentrations of 2 µM, 2 µM, and 8 µM, respectively. The final DMSO concentration was at or below 2% in all wells. Plates were grown at 37°C with shaking for 18 h and OD600 was monitored (BioTek Synergy H1, BioTek Eon). Each experiment was performed with biological triplicate or higher as indicated. Percent growth was determined by normalizing to OD600 reads in wells containing no D66 or antibiotic. Checkerboards in LPM 5.5 medium were performed with culture grown overnight in LB and diluted to an OD600 of 0.01 in LPM 5.5 and compounds/antibiotics were added as previously described. MuSyC analysis was pursued as previously described ([44], [45]). Briefly, the 2D Hill equation was fit to the normalized growth inhibition data from the checkerboards using a bounded non-linear least square regression algorithm. A Monte Carlo sampling method was used to compute the 95% CI in the parameter fits from three biological replicates. The bounds on the parameters minimal and maximal efficacy of the antibiotics and EPMs (E0,Emax) were [0.99,1.01] and [0,1], respectively ([44], [45]).

[3] = target: Klebsiella pneumoniae AcrB multidrug efflux pump; design: method as in PMID 37067435; settings: K. pneumoniae AcrB; cited from earlier work

## N#CC(C#N)=NNc1cccc(Cl)c1 [CCCP, carbonyl cyanide m-chlorophenyl hydrazone, reference compound]
[1]; 100 µM
  effect on FtsZ localization: delocalized FtsZ

## NC1CCN(CC(O)COc2ccc(Cl)cc2)CC1 (stereo not shown) [CU187]
[2]; 5 uM, 'Toxic' given instead of a score
  5 uM Avg Antibacterial Score: 25
[2]; 25 uM, 'Toxic' given instead of a score
  25 uM Avg Antibacterial Score: 24
[2]; Salmonella enterica, TYPHIMURIUM, RAW264.7, read-out: SAFIRE IC50
  IC50: 0.0004 µM
RAW 264.7 macrophages; 5 uM
  5 uM Avg Cell # Score: 121
RAW 264.7 macrophages; 25 uM
  25 uM Avg Cell # Score: 98
[1]; 150 µM, 15 min, LPM 5.5
  effect on mNeongreen-FtsZ ring size / localization: did not alter FtsZ localization
S. Typhimurium; Ciprofloxacin
  log10(α1) [95% CI] (log-fold-change in potency of EPM due to the antibiotic): 0.33 [0.19,0.37]
  Βobs [95% CI] (proportion increase in maximal efficacy of the antibiotic): 0.01 [-0.01,0.04]
S. Typhimurium; Doxycycline
  log10(α1) [95% CI] (log-fold-change in potency of EPM due to the antibiotic): 0.32 [-0.07,0.39]
  log10(α2) [95% CI] (log-fold-change in potency of the antibiotic due to the EPM): 0.46 [0.37,0.47]
  Βobs [95% CI] (proportion increase in maximal efficacy of the antibiotic): 0.02 [-0.0,0.02]
S. Typhimurium; Erythromycin
  log10(α2) [95% CI] (log-fold-change in potency of the antibiotic due to the EPM): 0.93 [0.85,0.96]
  Βobs [95% CI] (proportion increase in maximal efficacy of the antibiotic): 0.04 [0.03,0.04]
S. Typhimurium; ciprofloxacin (CIPRO) MIC in combination with the EPM
  Antibiotic MIC Combination: 0.2
S. Typhimurium; doxycycline (DOXY) MIC in combination with the EPM
  Antibiotic MIC Combination: 1
S. Typhimurium; with ciprofloxacin (CIPRO)
  EPM MIC Combination: 66
  FICI value: 0.27
S. Typhimurium; with doxycycline (DOXY)
  EPM MIC Combination: 100
  FICI value: 0.45
S. Typhimurium; with erythromycin (ERY)
  EPM MIC Combination: 100
  FICI value: 0.58

## CO[C@H]1/C=C/O[C@@]2(C)Oc3c(C)c(O)c4c(O)c(c(/C=N/N5CCN(C)CC5)c(O)c4c3C2=O)NC(=O)/C(C)=C\C=C\[C@H](C)[C@H](O)[C@@H](C)[C@@H](O)[C@@H](C)[C@H](OC(C)=O)[C@@H]1C [Rifampicin]
[2]; control, rifampicin 2 μg/mL, DMSO = 98
  Avg Antibact Score: 65
RAW 264.7 macrophages; control, rifampicin 2 μg/mL, DMSO = 100
  Avg Cell # Score: 111

## CC[C@H]1OC(=O)[C@H](C)[C@@H](O[C@H]2C[C@@](C)(OC)[C@@H](O)[C@H](C)O2)[C@H](C)[C@@H](O[C@@H]2O[C@H](C)C[C@H](N(C)C)[C@H]2O)[C@](C)(O)C[C@@H](C)C(=O)[C@H](C)[C@@H](O)[C@]1(C)O [erythromycin]
[3]
  Kd: 14.4 µM
